In publication PMC12566157, “Redox-Active Quinazolinone Thioamide Ag(I) Complexes with Potent Antibacterial Activity: Mechanistic Insights and Hydrogel-Enhanced Efficacy” (Molecules, 2025):

What was measured:
[1] = system: S. aureus; assay: microbe, parasite or virus in culture; conditions: Staphylococcus aureus, read-out: S. aureus MIC μg mL-1
Protocol: (§1) The in vitro antibacterial activity of the synthesized Ag(I) complexes was investigated against two bacterial strains: Gram (+) S. aureus and the Gram (−) E. coli. The assays were conducted using the broth microdilution method to determine both the half-maximal inhibitory concentrations (IC50) and minimal inhibitory concentrations (MIC).

[2] = system: E. coli; assay: microbe, parasite or virus in culture; conditions: Escherichia coli, read-out: E. coli IC50 μg mL-1
Protocol: as §1

[3] = system: S. aureus; assay: microbe, parasite or virus in culture; conditions: Staphylococcus aureus, read-out: S. aureus IC50 μg mL-1
Protocol: as §1

[4] = target: T1, thioredoxin reductase (TrxR) (Escherichia coli, UniProt P0A9P4); assay: enzyme inhibition assay with pure E. coli TrxR; assay type: biochemical
T1 construct: gene trxB
T1 sequence (P0A9P4 2-321): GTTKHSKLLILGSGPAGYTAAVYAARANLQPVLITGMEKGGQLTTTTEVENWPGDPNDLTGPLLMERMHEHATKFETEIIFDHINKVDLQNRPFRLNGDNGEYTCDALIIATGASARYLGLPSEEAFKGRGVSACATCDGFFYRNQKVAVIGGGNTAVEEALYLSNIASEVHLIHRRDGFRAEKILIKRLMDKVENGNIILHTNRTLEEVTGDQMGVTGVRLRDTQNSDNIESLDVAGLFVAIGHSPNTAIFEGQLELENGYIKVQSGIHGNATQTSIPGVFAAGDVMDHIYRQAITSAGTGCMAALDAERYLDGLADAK

[5] = target: T2, glutathione reductase (GR) (Escherichia coli, UniProt A0A0H3JIZ9); assay: enzyme inhibition assay with pure E. coli GR; assay type: biochemical
T2 construct: gene gor
T2 sequence (A0A0H3JIZ9 entry or part of it): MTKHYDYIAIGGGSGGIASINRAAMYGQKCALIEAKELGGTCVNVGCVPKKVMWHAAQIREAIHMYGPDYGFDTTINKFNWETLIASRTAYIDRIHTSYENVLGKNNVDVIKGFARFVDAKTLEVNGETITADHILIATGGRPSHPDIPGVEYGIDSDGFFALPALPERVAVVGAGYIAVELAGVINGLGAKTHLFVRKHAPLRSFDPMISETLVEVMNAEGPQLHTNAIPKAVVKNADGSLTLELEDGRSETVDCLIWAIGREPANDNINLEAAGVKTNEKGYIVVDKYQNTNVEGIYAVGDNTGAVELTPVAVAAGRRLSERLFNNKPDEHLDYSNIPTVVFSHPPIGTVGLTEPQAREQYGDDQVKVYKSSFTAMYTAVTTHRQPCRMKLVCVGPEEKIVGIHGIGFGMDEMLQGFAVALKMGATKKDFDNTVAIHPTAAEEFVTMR

| Compound | MIC [1] | IC50 [2] | IC50 [3] | IC50 [4] | IC50 [5] |
| --- | --- | --- | --- | --- | --- |
| c1ccc(P(c2ccccc2)c2ccccc2)cc1 [PPh3, thriphenylphosphine] | > 100 µg/mL | > 100 µg/mL | > 100 µg/mL |  |  |
| c1ccc(P(c2ccccc2)c2ccccc2Oc2ccccc2P(c2ccccc2)c2ccccc2)cc1 [DPEPhos, bis[(2-diphenylphosphino)phenyl]ether] | > 100 µg/mL | > 100 µg/mL | > 100 µg/mL |  |  |
| [AgCl(mqztH)(PPh3)2] [compound 1] |  |  |  | 215 nM | 65 nM |
| O=c1[nH]c(=S)[nH]c2ccccc12 [mqztH, 2-mercapto-4(3H)-quinazolinone] | > 100 µg/mL | > 100 µg/mL | > 100 µg/mL |  |  |
